Experimental findings from ChEMBL document CHEMBL4130390, “Crystal structure of Porphyromonas gingivalis dipeptidyl peptidase 4 and structure-activity relationships based on inhibitor profiling” (Eur J Med Chem, 2017) are described below.

By IC50 is commonly meant the concentration that inhibits the measured activity by half. As a reminder, the inhibition is the share of the control response that was lost under treatment. The term Ki denotes a dissociation constant, usually derived from enzyme kinetics or from competition with a known ligand. Read a high Ki as lower affinity.

The source made the active and inactive calls. The calls are words filed in the database; no cut-off is given here. A value given as a limit tells only on which side of the number the result lay.

The target of assay [1] is T1, Dipeptidyl peptidase IV (Porphyromonas gingivalis, UniProt O31048). Description: Inhibition of Porphyromonas gingivalis N-terminal His-tagged DPP4 expressed in Escherichia coli using Gly-Pro-p-nitroanilide as substrate.
T1 sequence (O31048 20-723 limits assumed): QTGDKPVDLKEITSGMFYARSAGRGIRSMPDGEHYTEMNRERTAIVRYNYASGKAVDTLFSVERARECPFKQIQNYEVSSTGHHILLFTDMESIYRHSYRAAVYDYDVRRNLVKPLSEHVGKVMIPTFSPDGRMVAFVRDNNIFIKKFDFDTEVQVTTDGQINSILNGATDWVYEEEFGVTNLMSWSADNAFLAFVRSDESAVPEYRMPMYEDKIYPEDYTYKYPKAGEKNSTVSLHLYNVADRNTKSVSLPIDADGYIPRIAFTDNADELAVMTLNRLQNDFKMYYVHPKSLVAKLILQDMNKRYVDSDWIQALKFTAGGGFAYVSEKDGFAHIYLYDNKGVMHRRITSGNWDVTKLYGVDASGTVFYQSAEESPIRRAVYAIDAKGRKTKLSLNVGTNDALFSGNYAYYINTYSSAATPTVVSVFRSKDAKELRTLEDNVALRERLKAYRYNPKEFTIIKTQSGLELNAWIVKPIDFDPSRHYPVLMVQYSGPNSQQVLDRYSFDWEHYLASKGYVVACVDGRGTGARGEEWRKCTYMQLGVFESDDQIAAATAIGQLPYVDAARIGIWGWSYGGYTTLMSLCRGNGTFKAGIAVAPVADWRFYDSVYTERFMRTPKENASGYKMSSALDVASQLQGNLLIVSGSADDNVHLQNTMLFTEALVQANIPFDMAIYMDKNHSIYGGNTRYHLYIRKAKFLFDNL
In assay [2] the target is Dipeptidyl peptidase IV (Porphyromonas gingivalis) (UniProt O31048). Description: Inhibition of Porphyromonas gingivalis N-terminal His-tagged DPP4 expressed in Escherichia coli at 10 uM using Gly-Pro-p-nitroanilide as substrate relative to control.
Sequence of Dipeptidyl peptidase IV (Porphyromonas gingivalis) (O31048 20-723 limits assumed): as above
For assay [3] the target is unchanged. As to the kind of experiment: Inhibition of Porphyromonas gingivalis N-terminal His-tagged DPP4 expressed in Escherichia coli using Gly-Pro-p-nitroanilide as substrate after 1 hr.
Assay [4] addresses T1, Dipeptidyl peptidase IV. As to the kind of experiment: Inhibition of Porphyromonas gingivalis N-terminal His-tagged DPP4 expressed in Escherichia coli using Gly-Pro-p-nitroanilide as substrate preincubated for 15 mins.
Assay [5] is described as follows: Selectivity index, ratio of IC50 for human DPP4 to IC50 for Porphyromonas gingivalis N-terminal His-tagged DPP4 expressed in Escherichia coli.
Assay [6] addresses Dipeptidyl peptidase IV (Porphyromonas gingivalis) (UniProt O31048). Description: Inhibition of Porphyromonas gingivalis N-terminal His-tagged DPP4 expressed in Escherichia coli at 100 uM using Gly-Pro-p-nitroanilide as substrate relative to control.
Another assay deals with Dipeptidyl peptidase 9 (Bos taurus, UniProt E1BI31). Description: Inhibition of bovine DPP9.
Sequence of Dipeptidyl peptidase 9 (E1BI31 whole entry): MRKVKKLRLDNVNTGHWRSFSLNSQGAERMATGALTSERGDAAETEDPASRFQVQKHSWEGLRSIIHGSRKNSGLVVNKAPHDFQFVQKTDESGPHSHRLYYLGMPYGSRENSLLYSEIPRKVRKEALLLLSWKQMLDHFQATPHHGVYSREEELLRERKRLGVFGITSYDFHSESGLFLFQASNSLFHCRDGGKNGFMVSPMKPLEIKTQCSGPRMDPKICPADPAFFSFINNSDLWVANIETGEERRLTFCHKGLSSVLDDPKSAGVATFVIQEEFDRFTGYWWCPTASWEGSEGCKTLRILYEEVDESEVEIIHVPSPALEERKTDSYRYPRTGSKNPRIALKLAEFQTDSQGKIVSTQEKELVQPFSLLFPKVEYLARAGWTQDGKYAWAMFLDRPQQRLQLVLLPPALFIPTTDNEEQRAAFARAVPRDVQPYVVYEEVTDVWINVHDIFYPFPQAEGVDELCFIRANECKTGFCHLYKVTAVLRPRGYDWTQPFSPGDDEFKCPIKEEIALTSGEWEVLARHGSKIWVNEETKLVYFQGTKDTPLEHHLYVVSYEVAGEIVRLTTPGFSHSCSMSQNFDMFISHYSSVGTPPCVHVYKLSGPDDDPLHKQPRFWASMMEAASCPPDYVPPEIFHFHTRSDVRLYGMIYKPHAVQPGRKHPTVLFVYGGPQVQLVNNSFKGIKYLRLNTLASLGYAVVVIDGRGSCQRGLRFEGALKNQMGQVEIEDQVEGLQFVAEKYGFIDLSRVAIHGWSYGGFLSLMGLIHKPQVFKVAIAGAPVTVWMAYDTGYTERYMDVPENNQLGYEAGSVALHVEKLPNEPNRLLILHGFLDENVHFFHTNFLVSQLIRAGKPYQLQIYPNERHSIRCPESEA

Regarding `N#C[C@@H]1CCCN1C(=O)CNC12CC3CC(CC(O)(C3)C1)C2` [VILDAGLIPTIN], the IC50 at Dipeptidyl peptidase IV [1] (read-out: IC50) is 1.3 µM. The compound also gave an inhibition in assay [2] of over 50%. In addition, the inhibition result in assay [3] was “Active”. The Ki on Dipeptidyl peptidase IV [4] was 0.017 µM.

`N#C[C@@H]1C[C@H](N=[N+]=[N-])CN1C(=O)[C@@H](N)CCCCNCc1ccc2ccccc2c1`: the Ratio IC50 in assay [5] was 7.04 to 7.1. In addition, the results for the inhibition in assay [6] and in assay [2] were under 50% and over 50%, respectively. The IC50 at Dipeptidyl peptidase IV [1] (read-out: IC50) was found to be 0.079 µM. Besides, the inhibition result in assay [3] is “Active”.

For the compound `CC[C@@H](C)[C@H](N)C(=O)N1C[C@@H](N=[N+]=[N-])C[C@H]1C#N`, the Ratio IC50 in assay [5] lay within 1.26 to 1.3. The inhibition in assay [6] was under 50%; in assay [2] it was over 50%. The IC50 on Dipeptidyl peptidase IV [1] (read-out: IC50) is 0.23 µM. For the same compound, in assay [3], the inhibition result was “Active”.

Regarding `CNCCCCC(N)C(=O)N1CCCC1` (stereo unspecified), in assay [5], the Ratio IC50 amounted to 0.52. The figures for the inhibition in assay [6] and in assay [2] were under 50% and over 50%, respectively. Further, on Dipeptidyl peptidase IV [1] (read-out: IC50), the IC50 is 9.4 µM.

For the compound `NC(CCCCNCc1ccccc1)C(=O)N1CCCC1` (stereo unspecified), the Ratio IC50 in assay [5] is 1.2. For the same compound, the inhibition is under 50% in assay [6] and over 50% in assay [2]. Besides, the IC50 on Dipeptidyl peptidase IV [1] (read-out: IC50) came out at 3.1 µM.

As for `CC#CCn1c(N2CCNCC2)nc2c1c(=O)n(Cc1nc(C)c3ccccc3n1)c(=O)n2C`, in assay [5], the Ratio IC50 is under 0.002. Further, the inhibition is under 50% in assay [6] and over 50% in assay [2]. The half-inhibitory concentration (IC50) result against Dipeptidyl peptidase IV [1] is reported as “IC50 10-100 uM”.

Take `N#C[C@@H]1CCCN1C(=O)[C@@H](N)CCCCNC(=O)OCc1ccccc1`: the Ratio IC50 in assay [5] is 0.02. Moreover, the inhibition is under 50% in assay [6] and over 50% in assay [2]. The IC50 at Dipeptidyl peptidase IV [1] (read-out: IC50) worked out at 1.5 µM.

As for `CC[C@H](C)[C@H](N)C(=O)N1C[C@@H](N=[N+]=[N-])C[C@H]1C#N`, the Ratio IC50 in assay [5] was 1.1. Also, the inhibition in assay [6] is under 50%; in assay [2], over 50%. The concentration for half-maximal inhibition (IC50) at Dipeptidyl peptidase IV [1] (read-out: IC50) came out at 0.31 µM.

In the case of `NC(CCCCNC(=O)OCc1ccccc1)C(=O)N1CCSC1` (stereo unspecified), the Ratio IC50 in assay [5] worked out at 0.17. In addition, the inhibition in assay [6] was under 50%; in assay [2], over 50%. Also, on Dipeptidyl peptidase IV [1] (read-out: IC50), the IC50 came to 22 µM.

Consider `NC(CCCCN(Cc1ccccc1)Cc1ccccc1)C(=O)N1CCCC1` (stereo unspecified), for which, in assay [5], the Ratio IC50 was found to be 0.88. In addition, the inhibition in assay [6] was under 50%; in assay [2] it was over 50%. The IC50 at Dipeptidyl peptidase IV [1] (read-out: IC50) was determined as 3.4 µM.

With `CC1CC(N=[N+]=[N-])CN1C(=O)C(N)CCC(=O)N1CCN(Cc2ccc(F)cc2)CC1` (stereo unspecified), the Ratio IC50 in assay [5] turned out to be 0.425. The inhibition in assay [6] is under 50%; in assay [2], over 50%. Moreover, the IC50 on Dipeptidyl peptidase IV [1] (read-out: IC50) was found to be 2.4 µM.

For the compound `N#C[C@@H]1C[C@H](N=[N+]=[N-])CN1C(=O)[C@@H](N)CCC(=O)NCCN`, the Ratio IC50 in assay [5] is 0.5. The inhibition in assay [6] was under 50%; in assay [2], over 50%. The IC50 on Dipeptidyl peptidase IV [1] (read-out: IC50) amounted to 0.8 µM.

On to `NC(CC(=O)N1CCN(C(c2ccc(F)cc2)c2ccc(F)cc2)CC1)C(=O)N1Cc2ccc(F)cc2C1` (stereo unspecified), for which, in assay [5], the Ratio IC50 was 2.7. In addition, the results for the inhibition in assay [6] and in assay [2] were under 50% and over 50%, respectively. The IC50 at Dipeptidyl peptidase IV [1] (read-out: IC50) worked out at 22 µM.

For `NC(CCCCNCc1ccccc1)C(=O)N1Cc2ccccc2C1` (stereo unspecified), the Ratio IC50 in assay [5] was over 4.5. For the same compound, the inhibition is under 50% in assay [6] and over 50% in assay [2]. Also, the concentration for half-maximal inhibition (IC50) at Dipeptidyl peptidase IV [1] (read-out: IC50) was 11 µM.

On to `CCC(C)C(N)C(=O)N1CCCC1` (stereo unspecified), for which, in assay [5], the Ratio IC50 was 0.18. In addition, the inhibition in assay [6] was under 50%; in assay [2], over 50%. Besides, the concentration for half-maximal inhibition (IC50) on Dipeptidyl peptidase IV [1] (read-out: IC50) turned out to be 22 µM.

With `N#C[C@@H]1C[C@H](N=[N+]=[N-])CN1C(=O)[C@@H](N)CCCCNC(=O)OCc1ccccc1`, in assay [5], the Ratio IC50 was in the range of 1.76 to 1.8. The inhibition in assay [6] was under 50%; in assay [2] it was over 50%. Further, on Dipeptidyl peptidase IV [1] (read-out: IC50), the IC50 came to 0.3 µM. The inhibition result in assay [3] is “Active”.

On to `N[C@@H](CCNCc1ccc(Cl)cc1)C(=O)N1CCCCC1`, for which the IC50 at Dipeptidyl peptidase 9 was 76.6 µM; on Dipeptidyl peptidase IV [1] (read-out: IC50), over 100 µM. Besides, the inhibition in assay [2] was over 50%.

Turning to `CC1CC(N=[N+]=[N-])CN1C(=O)C(N)CCC(=O)N1CCN(C(c2ccc(F)cc2)c2ccc(F)cc2)CC1` (stereo unspecified), the Ratio IC50 in assay [5] amounted to 0.25. Moreover, the inhibition in assay [6] is under 50%; in assay [2], over 50%. At Dipeptidyl peptidase IV [1] (read-out: IC50), the IC50 was 8 µM.

Consider `CC#CCn1c(N2CCC[C@@H](N)C2)nc2c1c(=O)n(Cc1nc(C)c3ccccc3n1)c(=O)n2C` [LINAGLIPTIN], for which the IC50 on Dipeptidyl peptidase 9 was over 100 µM; against Dipeptidyl peptidase IV [1], “IC50 10-100 uM”. The inhibition in assay [6] was under 50%; in assay [2], over 50%.

In the case of `N#C[C@@H]1C[C@H](N=[N+]=[N-])CN1C(=O)[C@@H](N)CCC(=O)N1CCNCC1`, in assay [5], the Ratio IC50 worked out at 1.2. Also, the inhibition in assay [6] is under 50%; in assay [2], over 50%. Further, the IC50 on Dipeptidyl peptidase IV [1] (read-out: IC50) was 0.48 µM.

In the case of `NC(CCCCN(Cc1ccc2ccccc2c1)Cc1ccc2ccccc2c1)C(=O)N1CCCC1` (stereo unspecified), in assay [5], the Ratio IC50 came out at 1.2. Also, the inhibition was under 50% in assay [6] and over 50% in assay [2]. For the same compound, the half-inhibitory concentration (IC50) on Dipeptidyl peptidase IV [1] (read-out: IC50) turned out to be 3.5 µM.
